Test results reported in US20230183753A1, “Methods of in Vitro Cell Delivery” (Intellia Therapeutics, Inc., priority 2020, published 2023).

Tests used:
Type in all cases: cell-based, human
[1] = tested on: B2M, TRAC, TRBC1/2, CIITA; assay: NGS editing profile of T cells with BC22n or Cas9 mRNA, single or four guides, LNP titration, Example 16A; conditions: four guides simultaneously, with trans UGI;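 also: activated T cells exposed to LNPs 72 h after activation, kept at 37 °C, harvested on day 10 post activation, editing measured by NGS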
B2M, CD3, MHC II = assay: Flow cytometry of antigen negative T cells (B2M, CD3, MHC II) after BC22n or Cas9 editing, Example 16A
Text: Cells were subsequently washed, processed on a Cytoflex instrument (Beckman Coulter) and analyzed using the FlowJo software package. T cells were gated based on size, shape, viability, and antigen expression.

B2M, TRAC, TRBC, CIITA = assay: NGS percent editing after LNP delivery of BC22n or Cas9 with single or four guides, Example 16.B.6; conditions: 4 guides delivered by LNP
Procedure: (§1) LNPs were formulated generally as in Example 1 with a single RNA species cargo. […] Seventy-two hours post activation, T cells were washed and suspended in OpTmizer media with cytokines without human serum. […] A control group including unedited T cells (no LNP) was also included. At 16 hours post-delivery, a subset of cells was used to measure cell viability and another subset of cells was processed for imaging of γH2AX foci. The remaining T cells continued to expand in culture. Media was changed 5 days and 8 days after activation and on the eleventh day post activation, cells were harvested for analysis by NGS, flow cytometry and UnIT. NGS was performed as in Example 1.
(§2) On day 8 post-editing, T cells were phenotyped by flow cytometry to determine B2M, CD3 and HLA II− DR, DP, DQ protein expression. Briefly, T cells were incubated in a cocktail of antibodies targeting B2M-APC/Fire™ 750 (BioLegend® Cat. No. 316314), CD3-BV605 (BioLegend® Cat. No. […]) and HLA II− DR, DP, DQ-PE (BioLegend® Cat. No. 361716). Cells were subsequently washed, processed on a Cytoflex flow cytometer (Beckman Coulter) and analyzed using the FlowJo software package. T cells were gated based on size, shape, viability, and MHC II expression. […]

[2] = tested on: B2M, CD3, HLA II-DR, DP, DQ; assay: Flow cytometry of surface proteins (B2M, CD3, HLA II-DR, DP, DQ) after LNP delivery, Example 16.B.6; conditions: LNP treatment
Procedure: as §1, §2

[3] = tested on: interchromosomal translocations; assay: UnIT structural variant assay (interchromosomal translocations), Example 16.B.7; conditions: multiplex editing with 4 guides by LNP
Procedure: On day 8 post-editing a subset of T cells from the untreated, LNP-Cas9-4 guides and LNP-BC22n-4 guides samples were collected, spun down and resuspended in 100 μL of PBS. gDNA was isolated from the cells using DNeasy Blood & Tissue Kit (Qiagen Cat. 69504). The UnIT structural variant characterization assay was applied to these gDNA samples. High molecular weight genomic DNA is simultaneously fragmented and sequence-tagged (‘tagmented’) with the Tn5 transposase and an adapter with a partial Illumina P5 sequence and a 12 bp unique molecular identifier (UMI). Two sequential PCRs using a primer to P5 and hemi-nested gene specific primers (GSP) imparting the Illumina the P7 sequence to create two Illumina compatible NGS libraries per sample. Sequencing across both directions of the CRISPR/Cas9 targeted cut site with the two libraries allows the inference and quantification of structural variants in DNA repair outcomes after genome editing.

In the case of “BC22n: mRNA encoding editor: H. sapiens APOBEC3A fused to S. pyogenes-D10A Cas9 nickase by an XTEN linker, without UGI”, the “maximum total editing for each locus compared with Cas9, in words” value [1] was “higher percentages of maximum total editing for each locus”, the “% of cells lacking all three antigens (triple knockout: B2M, CD3, MHC II)” value (B2M, CD3, MHC II; four guides, with trans UGI, highest total RNA dose of 550 ng) was 84.2% and the “R square, C to T conversions compared to antigen knockout” value (B2M, CD3, MHC II; samples treated with one guide only) was 0.93. For the same substance, the “percent editing at each locus compared with Cas9, in words” value (B2M, TRAC, TRBC, CIITA) was “percent editing is higher at each locus”, the “triple knockout cells compared with Cas9, in words” value [2] was “greater percentage of triple knockout cells” and the “interchromosomal translocations / structural variation (UnIT), in words” value [3] was “reduced to background levels”.
